Assay results taken from patent publication US20040058983A1, “Plan-derived and synthetic phenolic compounds and plant extracts, effective in the treatment and prevention of chlamydial infections” (priority 2000, published 2004).
Like-named read-outs stand apart in the source and are kept apart here.

What was measured:
C. pneumoniae = assay: Direct anti-chlamydial effect of compounds and mixtures on C. pneumoniae (Example 5); format: cell-based; conditions: for inhibition at 50 µM: Chlamydia pneumoniae
Method: Direct Anti-Chlamydial Effect of Plant-Derived Phenolic Compounds, Certain Synthetic Compounds and Mixtures on C. pneumoniae
The concentration used was 50 μM.
The cultivated HL cells are infected with C. pneumoniae EB's. The EB's which have invaded the cell are changed into the metabolically active reticulate body (RB) which are dividing by binary fission in the endosome vacuole or inclusion.
After a certain time (about 72 hr) the C. pneumoniae RB's are condensing back into EB's, after which the inclusions are broken, the host cells are broken and the EB's are liberated. In this method the intention is to verify the inclusions before the breaking up of the host cells.
On the day preceding the infection the host cells are inoculated on a 24-well plate: the cells are harvested by trypsinisation, they are suspended in ca. 5 ml of the nutrition liquid and counted in a Burker's chamber. Each well are seeded using a concentration of 250000-400000 cells/well for cultivation. Before the addition of the cells to the well is if necessary round cover glass (diameter 13 mm) put for staining. Nutrition liquid is added so that the volume is 1 ml/well. On the following day the cells are infected with the desired bacterium.
Solution to be used in the infection and containing chlamydiae particles is mixed throughout. The old nutrition liquid is aspirated away. By the infection the inoculum which has been stored at −70° C. is diluted to an IFU concentration of ca. 10^3 so that the volume of the solution is at least 200 μl/well on a 24-well plate. The cells are infected by centrifuging at 1600 rpm (550×g)/1 hr. The nutrition medium is aspirated away and changed to a maintenance medium containing cyclohexamide and also containing the studied compound (DMSO concentration 0.2%), 1 ml/well. The cells are incubated in a 5% CO2 atmosphere at +35° C. The cells infected with C. pneumoniae are incubated for 3 days. After 2-3 days the maintenance medium is removed and the cells washed with 1×1 ml of PBS. To the wells 200 μl of SPG are added for further infection, harvested with a pipette tip and transferred into tubes. This is used for infecting new cells in the same way as above to test the inhibition of infectivity (chlamydiasidic effect).
The nutrition medium, which is above the cover glass left for staining, is aspirated away. The infected cells are fixed on the cover glass with methanol for 10 min. The cover glass is removed from the well and -transferred onto a suitable fluorescein-conjugated monoclonal antibody on Parafilm in a moist chamber with the cell-containing side down. The cover glass is incubated for 30 min at +37° C. and washed twice with PBS and once with water. Finally it is dried. The cover glass is put with the cell-containing side down on an object glass containing a fixative (e.g. Mounting medium). When viewed under the fluorescent microscope, cell culture specimens infacted with chlamydiae show a characteristic apple-green fluorescence of inclusions against a red counterstained background.

Ca^2+ intake in the cell = assay: Effect of the compounds on the calcium influx (Ca2+ intake) to the cell; format: cell-based; conditions: compound 20 μg/ml; − = decrease, + = increase
Text: (§1) In the following Table I some of the preferred plant-derived phenolic compounds according to the present invention, the effect of the compounds on the calcium influx to the cell, the antioxidant effect as well as the chemical structure of the compounds are presented.

[1] = Antioxidant effect, IC50 against DPPH; format: biochemical; conditions: read-out: IC50 [moles L^−1] against DPPH′
Text: as §1

## COc1ccccc1-c1cc(=O)c2ccc3ccccc3c2o1 [2′-methoxy-α-naphtoflavone]
C. pneumoniae; 50 μM
  Inhibition %: 100%

## O=c1oc2cc(O)ccc2cc1-c1nc2ccccc2o1 [3-(2-benzoxazoyl)umbelliferone]
C. pneumoniae; 50 μM
  Inhibition %: 28%

## CC(=O)CC(c1ccccc1)c1c(O)c2ccccc2oc1=O (stereo not drawn) [3-(α-acetonylbenzyl)-4-hydroxycoumarin]
C. pneumoniae; 50 μM, read-out: Inhibition %
  inhibition at 50 µM: 0%

## O=C(c1ccccc1)c1cc2c(ccc3ccccc32)oc1=O [3-benzoylbenzo(F)coumarin]
C. pneumoniae; 50 μM
  Inhibition %: 62%

## Cc1c(-c2ccccc2)c(=O)oc2ccccc12 [4-methyl-3-phenylcoumarin]
C. pneumoniae; 50 μM, read-out: Inhibition %
  inhibition at 50 µM: 0%

## COc1ccc2oc(-c3ccccc3OC)cc(=O)c2c1 [6,2′-dimethoxyflavone]
C. pneumoniae; 50 μM, read-out: Inhibition %
  inhibition at 50 µM: 73%

## O=C(O)c1cc2cc(Br)cc(Br)c2oc1=O [6,8-dibromocoumarin-3-carboxylic acid]
C. pneumoniae; 50 μM, read-out: Inhibition %
  inhibition at 50 µM: 0%

## Cc1ccc2oc(=O)ccc2c1 [6-methylcoumarin]
C. pneumoniae; 50 μM, read-out: Inhibition %
  inhibition at 50 µM: 71%

## CCN(CC)c1ccc2cc(C(=O)c3cccs3)c(=O)oc2c1 [7-diethylamino-3-thenoylcoumarin]
C. pneumoniae; 50 μM
  Inhibition %: 100%

## Oc1cc(O)c2c(c1)O[C@H](c1ccc(O)c(O)c1)[C@@H](O)C2 [(+)-Catechin]
C. pneumoniae; 50 μM
  Inhibition %: 76%

## O=C(O[C@@H]1Cc2c(O)cc(O)cc2O[C@@H]1c1ccc(O)c(O)c1)c1cc(O)c(O)c(O)c1 [(−)-Epicatechin gallate]
C. pneumoniae; 50 μM
  Inhibition %: 85%

## Oc1cc(O)c2c(c1)O[C@H](c1ccc(O)c(O)c1)[C@H](O)C2 [(−)-Epicatechin]
C. pneumoniae; 50 μM
  Inhibition %: 75%

## Oc1cc(O)c2c(c1)O[C@H](c1cc(O)c(O)c(O)c1)[C@H](O)C2 [(−)-Epigallocatechin]
C. pneumoniae; 50 μM
  Inhibition %: 58%

## COc1ccc(-c2cc(=O)c3c(O)cc(O)cc3o2)cc1 [Acacetin]
Ca^2+ intake in the cell
  Effect on Ca^2+ intake [%]: −1.39%
[1]
  IC50: > 3520 µM

## O=c1cc(-c2ccccc2)oc2c1ccc1ccccc12 [Alpha-naphtoflavone]
C. pneumoniae; 50 μM
  Inhibition %: 92%

## O=c1cc(-c2ccc(O)cc2)oc2cc(O)cc(O)c12 [Apigenin]
Ca^2+ intake in the cell
  inhibition at 20 µg/mL: 29.3%
[1]
  IC50: > 3700 µM
C. pneumoniae; 50 μM, read-out: Inhibition %
  inhibition at 50 µM: 100%

## O=C(O)c1ccccc1 [Benzoic acid]
Ca^2+ intake in the cell
  Effect on Ca^2+ intake [%]: −9.82%
[1]
  IC50: > 8190 µM
C. pneumoniae; 50 μM
  Inhibition %: 44%

## O=C(O)/C=C/c1ccc(O)c(O)c1 [Caffeic acid]
Ca^2+ intake in the cell
  inhibition at 20 µg/mL: -9.71%
[1]
  IC50: 21.4 µM
C. pneumoniae; 50 μM, read-out: Inhibition %
  inhibition at 50 µM: 78%

## CCN(CC)c1ccc2cc(-c3nc4ccccc4n3C)c(=O)oc2c1 [Coumarin 30]
C. pneumoniae; 50 μM
  Inhibition %: 50%

## Cc1cc(=O)oc2c3c4c(cc12)CCCN4CCC3 [Coumarin 102]
C. pneumoniae; 50 μM
  Inhibition %: 63%

## O=c1oc2c3c4c(cc2c2c1CCC2)CCCN4CCC3 [Coumarin 106]
C. pneumoniae; 50 μM
  Inhibition %: 100%

## O=c1ccc2ccccc2o1 [Coumarin]
C. pneumoniae; 50 μM, read-out: Inhibition %
  inhibition at 50 µM: 28%

## O=c1c(-c2ccc(O)cc2)coc2cc(O)ccc12 [Daidzein]
Ca^2+ intake in the cell
  Effect on Ca^2+ intake [%]: −26.2%
[1]
  IC50: > 3930 µM
C. pneumoniae; 50 μM
  Inhibition %: 51%

## O=c1c(-c2ccc(O)cc2)coc2cc(O[C@@H]3O[C@H](CO)[C@@H](O)[C@H](O)[C@H]3O)ccc12 [Daidzin]
Ca^2+ intake in the cell
  Effect on Ca^2+ intake [%]: +7.6%
C. pneumoniae; 50 μM
  Inhibition %: 0%

## CCCCCCCCCCCCOC(=O)c1cc(O)c(O)c(O)c1 [Dodecyl gallate]
Ca^2+ intake in the cell
  inhibition at 20 µg/mL: 40.4%
[1]
  IC50: 15.4 µM
C. pneumoniae; 50 μM, read-out: Inhibition %
  inhibition at 50 µM: 100%

## COc1cc(/C=C/C(=O)O)ccc1O [Ferulic acid]
Ca^2+ intake in the cell
  inhibition at 20 µg/mL: -9.23%
[1]
  IC50: 44.3 µM
C. pneumoniae; 50 μM, read-out: Inhibition %
  inhibition at 50 µM: 14%

## O=c1cc(-c2ccccc2)oc2ccccc12 [Flavone]
Ca^2+ intake in the cell
  inhibition at 20 µg/mL: 63.5%
[1]
  IC50: > 4500 µM
C. pneumoniae; 50 μM, read-out: Inhibition %
  inhibition at 50 µM: 90%

## O=C(O)c1cc(O)c(O)c(O)c1 [Gallic acid]
Ca^2+ intake in the cell
  inhibition at 20 µg/mL: 5.33%
[1]
  IC50: 21.5 µM
C. pneumoniae; 50 μM, read-out: Inhibition %
  inhibition at 50 µM: 27%

## O=c1c(-c2ccc(O)cc2)coc2cc(O)cc(O)c12 [Genistein]
Ca^2+ intake in the cell
  inhibition at 20 µg/mL: 54.6%
[1]
  IC50: > 3700 µM
C. pneumoniae; 50 μM, read-out: Inhibition %
  inhibition at 50 µM: 60%

## O=c1c(-c2ccc(O)cc2)coc2cc(O[C@@H]3O[C@H](CO)[C@@H](O)[C@H](O)[C@H]3O)cc(O)c12 [Genistin]
Ca^2+ intake in the cell
  inhibition at 20 µg/mL: 3.39%
C. pneumoniae; 50 μM, read-out: Inhibition %
  inhibition at 50 µM: 37%

## COc1cc(-c2oc3cc(O)cc(O)c3c(=O)c2O)ccc1O [Isorhamnetin]
Ca^2+ intake in the cell
  Effect on Ca^2+ intake [%]: +52.4%
[1]
  IC50: 18.1 µM
C. pneumoniae; 50 μM
  Inhibition %: 70%

## O=c1cc(-c2ccc(O)c(O[C@@H]3O[C@H](CO)[C@@H](O)[C@H](O)[C@H]3O)c2)oc2cc(O[C@@H]3O[C@H](CO)[C@@H](O)[C@H](O)[C@H]3O)cc(O)c12 [Luteolin-3′,7-glucoside]
Ca^2+ intake in the cell
  Effect on Ca^2+ intake [%]: −14.6%
C. pneumoniae; 50 μM
  Inhibition %: 45%

## O=c1cc(-c2ccc(O)c(O)c2)oc2cc(O[C@@H]3O[C@H](CO)[C@@H](O)[C@H](O)[C@H]3O)cc(O)c12 [Luteolin-7-glucoside]
Ca^2+ intake in the cell
  Effect on Ca^2+ intake [%]: −16.3%
[1]
  IC50: 10.7 µM
C. pneumoniae; 50 μM
  Inhibition %: 23%

## O=c1cc(-c2ccc(O)c(O)c2)oc2cc(O)cc(O)c12 [Luteolin]
Ca^2+ intake in the cell
  inhibition at 20 µg/mL: 51.4%
[1]
  IC50: 12 µM
C. pneumoniae; 50 μM, read-out: Inhibition %
  inhibition at 50 µM: 100%

## COC(=O)c1cc(O)c(O)c(O)c1 [Methyl gallate]
[1]
  IC50: 5.09 µM
C. pneumoniae; 50 μM, read-out: Inhibition %
  inhibition at 50 µM: 100%

## O=C1C[C@@H](c2ccc(O)cc2)Oc2cc(O)cc(O)c21 [Naringenin]
Ca^2+ intake in the cell
  inhibition at 20 µg/mL: 56.3%
[1]
  IC50: > 3670 µM
C. pneumoniae; 50 μM, read-out: Inhibition %
  inhibition at 50 µM: 16%

## C[C@@H]1O[C@@H](O[C@H]2[C@H](Oc3cc(O)c4c(c3)O[C@H](c3ccc(O)cc3)CC4=O)O[C@H](CO)[C@@H](O)[C@@H]2O)[C@H](O)[C@H](O)[C@H]1O [Naringin]
Ca^2+ intake in the cell
  Effect on Ca^2+ intake [%]: +6.5%
C. pneumoniae; 50 μM
  Inhibition %: 66%

## Oc1cc(O)c2c(c1)O[C@H](c1ccc(O)c(O)c1)[C@H](O)[C@H]2c1c(O)cc(O)c2c1O[C@H](c1ccc(O)c(O)c1)[C@@H](O)C2 [Procyanidin B1]
C. pneumoniae; 50 μM
  Inhibition %: 30%

## Oc1cc(O)c2c(c1)O[C@H](c1ccc(O)c(O)c1)[C@H](O)[C@H]2c1c(O)cc(O)c2c1O[C@H](c1ccc(O)c(O)c1)[C@H](O)C2 [Procyanidin B2]
C. pneumoniae; 50 μM
  Inhibition %: 0%

## CCCOC(=O)c1cc(O)c(O)c(O)c1 [Propyl Gallate]
Ca^2+ intake in the cell
  inhibition at 20 µg/mL: 37.9%
[1]
  IC50: 13.3 µM
C. pneumoniae; 50 μM, read-out: Inhibition %
  inhibition at 50 µM: 100%

## C[C@@H]1O[C@@H](Oc2c(-c3ccc(O)c(O)c3)oc3cc(O)cc(O)c3c2=O)[C@H](O)[C@H](O)[C@H]1O [Quercitrin]
Ca^2+ intake in the cell
  Effect on Ca^2+ intake [%]: +20.1%
[1]
  IC50: 12.9 µM
C. pneumoniae; 50 μM
  Inhibition %: 50%

## Oc1ccc(/C=C/c2cc(O)cc(O)c2)cc1 [Resveratrole]
C. pneumoniae; 50 μM
  Inhibition %: 54%

## C=C(C)[C@H]1Cc2c(ccc3c2O[C@@H]2COc4cc(OC)c(OC)cc4[C@@H]2C3=O)O1 [Rotenone]
C. pneumoniae
  inhibition at 50 µM: 100%

## COc1cc2ccc(=O)oc2cc1O [Scopoletin]
C. pneumoniae; 50 μM, read-out: Inhibition %
  inhibition at 50 µM: 96%

## O=c1ccc2ccc(O)cc2o1 [Umbelliferone]
C. pneumoniae; 50 μM, read-out: Inhibition %
  inhibition at 50 µM: 75%

## C[C@@H]1O[C@@H](O[C@@H]2[C@@H](O)[C@H](O)[C@@H](CO)O[C@H]2c2c(O)cc(O)c3c(=O)cc(-c4ccc(O)cc4)oc23)[C@H](O)[C@H](O)[C@H]1O [Vitexin-2″-O-rhamnoside]
Ca^2+ intake in the cell
  Effect on Ca^2+ intake [%]: −14.6%
C. pneumoniae; 50 μM
  Inhibition %: 11%

## O=c1cc(-c2ccc(O)cc2)oc2c([C@@H]3O[C@H](CO)[C@@H](O)[C@H](O)[C@H]3O)c(O)cc(O)c12 [Vitexin]
Ca^2+ intake in the cell
  Effect on Ca^2+ intake [%]: −2.12%
C. pneumoniae; 50 μM
  Inhibition %: 3%

## COc1c2occc2cc2ccc(=O)oc12 [Xanthotoxin]
C. pneumoniae; 50 μM
  Inhibition %: 94%

## Methoxy psoralen
C. pneumoniae; 50 μM
  Inhibition %: 100%
